No end group written: not given here.
System: A. thaliana seedlings
Assay: Seedling growth inhibition (fresh weight)
Assay type: in vivo, Arabidopsis thaliana
Conditions: mock mean = 1
Procedure: Four-day-old seedlings growing on MS plates were transferred individually into separate wells of transparent 48-well tissue culture plates (Greiner Bio-One) containing 500 μL of liquid MS media with/without elicitor addition. The plates were then transferred back to the growth conditions for an additional 10 days before seedlings were blot-dried and weighed.

**Q.** What does the source list for FTGPSGSGHGGGR [SCOOP10]?
**A.** Seedling fresh weight (Fig3C), relative to mock (Col-0, 1 μM, replicate 1): 1.053; Seedling fresh weight (Fig3C), relative to mock (Col-0, 1 μM, replicate 2): 0.7731; Seedling fresh weight (Fig3C), relative to mock (Col-0, 1 μM, replicate 3): 0.8401; Seedling fresh weight (Fig3C), relative to mock (Col-0, 1 μM, replicate 4): 1.102; Seedling fresh weight (Fig3C), relative to mock (Col-0, 1 μM, replicate 5): 0.9923; Seedling fresh weight (Fig3C), relative to mock (Col-0, 1 μM, replicate 6): 0.9101; Seedling fresh weight (Fig3C), relative to mock (Col-0, 1 μM, replicate 7): 0.9071; Seedling fresh weight (Fig3C), relative to mock (Col-0, 1 μM, replicate 8): 0.8705; Seedling fresh weight (Fig3C), relative to mock (Col-0, 1 μM, replicate 9): 0.8462; Seedling fresh weight (Fig3C), relative to mock (Col-0, 1 μM, replicate 10): 0.7792; Seedling fresh weight (Fig3C), relative to mock (Col-0, 1 μM, replicate 11): 0.9497; Seedling fresh weight (Fig3C), relative to mock (Col-0, 1 μM, replicate 12): 0.9679; Seedling fresh weight (Fig3C), relative to mock (Col-0, 10 μM, replicate 1): 0.6611; Seedling fresh weight (Fig3C), relative to mock (Col-0, 10 μM, replicate 2): 0.655; Seedling fresh weight (Fig3C), relative to mock (Col-0, 10 μM, replicate 3): 0.649; Seedling fresh weight (Fig3C), relative to mock (Col-0, 10 μM, replicate 4): 0.4731; Seedling fresh weight (Fig3C), relative to mock (Col-0, 10 μM, replicate 5): 0.5034; Seedling fresh weight (Fig3C), relative to mock (Col-0, 10 μM, replicate 6): 0.7187; Seedling fresh weight (Fig3C), relative to mock (Col-0, 10 μM, replicate 7): 0.652; Seedling fresh weight (Fig3C), relative to mock (Col-0, 10 μM, replicate 8): 0.7096; Seedling fresh weight (Fig3C), relative to mock (Col-0, 10 μM, replicate 9): 0.5944; Seedling fresh weight (Fig3C), relative to mock (Col-0, 10 μM, replicate 10): 0.5519; Seedling fresh weight (Fig3C), relative to mock (Col-0, 10 μM, replicate 11): 0.555; Seedling fresh weight (Fig3C), relative to mock (Col-0, 10 μM, replicate 12): 0.6884; Seedling fresh weight (Fig3C), relative to mock (mik2-1, 1 μM, replicate 1): 0.8644; Seedling fresh weight (Fig3C), relative to mock (mik2-1, 1 μM, replicate 2): 1.019; Seedling fresh weight (Fig3C), relative to mock (mik2-1, 1 μM, replicate 3): 1.022; Seedling fresh weight (Fig3C), relative to mock (mik2-1, 1 μM, replicate 4): 0.7702; Seedling fresh weight (Fig3C), relative to mock (mik2-1, 1 μM, replicate 5): 0.8139; Seedling fresh weight (Fig3C), relative to mock (mik2-1, 1 μM, replicate 6): 0.8307; Seedling fresh weight (Fig3C), relative to mock (mik2-1, 1 μM, replicate 7): 0.9619; Seedling fresh weight (Fig3C), relative to mock (mik2-1, 1 μM, replicate 8): 1.049; Seedling fresh weight (Fig3C), relative to mock (mik2-1, 1 μM, replicate 9): 1.086; Seedling fresh weight (Fig3C), relative to mock (mik2-1, 1 μM, replicate 10): 1.002; Seedling fresh weight (Fig3C), relative to mock (mik2-1, 1 μM, replicate 11): 1.026; Seedling fresh weight (Fig3C), relative to mock (mik2-1, 1 μM, replicate 12): 1.123; Seedling fresh weight (Fig3C), relative to mock (mik2-1, 10 μM, replicate 1): 0.8284; Seedling fresh weight (Fig3C), relative to mock (mik2-1, 10 μM, replicate 2): 1.096; Seedling fresh weight (Fig3C), relative to mock (mik2-1, 10 μM, replicate 3): 0.9366; Seedling fresh weight (Fig3C), relative to mock (mik2-1, 10 μM, replicate 4): 0.8791; Seedling fresh weight (Fig3C), relative to mock (mik2-1, 10 μM, replicate 5): 0.9096; Seedling fresh weight (Fig3C), relative to mock (mik2-1, 10 μM, replicate 6): 0.8453; Seedling fresh weight (Fig3C), relative to mock (mik2-1, 10 μM, replicate 7): 0.967; Seedling fresh weight (Fig3C), relative to mock (mik2-1, 10 μM, replicate 8): 0.94; Seedling fresh weight (Fig3C), relative to mock (mik2-1, 10 μM, replicate 9): 0.9806; Seedling fresh weight (Fig3C), relative to mock (mik2-1, 10 μM, replicate 10): 0.896; Seedling fresh weight (Fig3C), relative to mock (mik2-1, 10 μM, replicate 11): 1.031; Seedling fresh weight (Fig3C), relative to mock (mik2-1, 10 μM, replicate 12): 1.096
